Data as given in patent publication US9770438B2, “Clonidine formulation in a polyorthoester carrier” (Medtronic, Inc., priority 2008, dated 2017).

Experiments:
[1] = tested on: Rat Chronic Constriction Injury Model (Bennett Model) of neuropathic pain; conditions: subcutaneously 0.02 mg/kg/day; compared to unloaded polyorthoester depot (POE Control); days 8-64; FIG. 4
Description: (§1) A 2-month chronic constriction injury (CCI) model of neuropathic pain was used to evaluate a formulation of clonidine encapsulated in a POE polymer, a POE control polymer and clonidine given subcutaneously (SC).
(§2) The inventors evaluated the efficacy of a five month Clonidine/Polyorthoester Drug Depot in the Rat Chronic Constriction Injury Model. The animal model was the Bennett Model (Wistar rat). The purpose: to determine whether a five month polyorthoester clonidine-eluting depot can improve pain associated behavioral responses in a rat model of neuropathic pain.
(§3) Experimental Design: Four loose chromic gut ligatures, 1 mm apart, were tied around the common sciatic nerve at mid-thigh. Each animal received treatment of test or a controlled article according to the dosing described in Table 2.
(§4) The inventors have conducted the present study for a period of 64 days and have employed the following two tests: (1) the Hargreaves test; and (2) the von Frey test. The Hargreaves Tests of Thermal Hyperalgesia were conducted on days 7, 14, 21, 28, 35, 42, 49, 56 and 63. The von Frey monofilament test of mechanical allodynia (performed the day following thermal testing) were conducted on days 8, 15, 22, 29, 36, 43, 50, 57 and 64.

[2] = tested on: Rat Chronic Constriction Injury Model (Bennett Model) of neuropathic pain; conditions: subcutaneously 0.02 mg/kg/day; compared to unloaded polyorthoester depot (POE Control); days 7-63; FIG. 3
Description: as §1, §2, §3, §4

## Clc1cccc(Cl)c1N=C1NCCN1 [clonidine, 2,6-dichloro-N-2-imidazolidinyldenebenzenamine]
[1]
  pain behavioral response (percentage of baseline) for mechanical allodynia: reduced the behavioral response
[2]
  pain behavioral response (percentage of baseline) for thermal hyperalgesia: consistently reduced the behavioral response
